Assay results from patent US20260374792A1, “PHENYL-FREE BISCATIONIC QUATERNARY PHOSPHONIUM COMPOUNDS AS ANTIMICROBIAL AGENTS” (priority 2022, published 2026).
Entries after “also recorded” stand apart in the source; their conditions may differ.

Columns and labels:
Type in all cases: cell-based
CA-MRSA (USA300-0114) = test: MIC against community-acquired methicillin-resistant S. aureus (CA-MRSA); settings: Staphylococcus aureus, 72 h
Experimental: (§1) The term “minimum inhibitory concentration (MIC)” means the lowest concentration of an antimicrobial agent that will inhibit the visible growth of a microorganism after overnight incubation. MIC values against bacteria, for example, the Gram-positive Staphylococcus aureus and Enterococcus faecalis and the Gram-negative Escherichia coli and Pseudomonas aeruginosa were determined by standard methods. See also P. A. Wayne, Methods for Dilution Antimicrobial Tests for Bacteria that Grow Aerobically; Approved Standard, Ninth Edition, 2012, CLSI Document M07-A9, Vol. 32 No. 2.
(§2) Biological testing procedures were adapted from prior work by Melander and coworkers. For all biological assays, laboratory strains of methicillin-susceptible Staphylococcus aureus MSSA (SH1000), Staphylococcus aureus CA-MRSA (USA300-0114), Staphylococcus aureus HA-MRSA (ATCC 33591), Escherichia coli (MC4100), Enterococcus faecalis (OG1RF), Acinetobacter baumannii (ATCC 17978), were grown with shaking at 37 °C overnight from freezer stocks in 5 mL of the indicated media: SH1000, OG1RF, MC4100, USA300-0114, and ATCC 17978 were grown in BDTM Mueller-Hinton broth (MHB), whereas ATCC 33591 was grown in BDTM tryptic soy broth (TSB). The inoculum were then streaked onto Mueller-Hinton agar (MHA) plates and grown overnight at 37 °C. From the plates, single colonies were selected, diluted into 50 mL of fresh media and grown overnight at 37 °C with shaking for use in the MIC assays. Optical density (OD) measurements were obtained using a SpectraMax iD3 plate reader (Molecular Devices, United States).
(§3) Compounds were serially diluted two-fold from stock solutions (1.0 mM) to yield twelve 100 μL test concentrations, wherein the starting concentration of dimethyl sulfoxide (DMSO) was 2.5%. Overnight S. aureus, E. faecalis, E. coli, A. baumannii, USA300-0114 (CA-MRSA), and ATCC 33591 (HA-MRSA) cultures were diluted to ca. 10^6 CFU/mL in MHB or TSB and regrown to mid-exponential phase, as determined by optical density recorded at 600 nm (OD600). All cultures were then diluted again to ca. 10^6 CFU/mL and 100 μL were inoculated into each well of a U-bottom 96-well plate (Corning, 351177) containing 100 μL of compound solution. Plates were incubated statically at 37 °C for 72 hours upon which wells were evaluated visually for bacterial growth. The MIC was determined as the lowest concentration of compound resulting in no bacterial growth visible to the naked eye, based on the highest value in three independent experiments. Aqueous DMSO controls were conducted as appropriate for each compound.
(§4) The prepared library of biscationic amphiphilic compounds was assessed for performance as antibacterial disinfectants by determining the minimum inhibitory concentration (MIC) for each against a panel of bacteria. The bacteria selected for the study were chosen to evaluate the broad spectrum antimicrobial performance of the QPCs, and therefore, included both Gram-positive and Gram-negative bacterial strains, including those with known antimicrobial resistance mechanisms. These bacteria include the Gram-positive strains of methicillin-susceptible Staphylococcus aureus [MSSA; SH1000], community-acquired methicillin-resistant Staphylococcus aureus [CA-MRSA; USA 300-0114], hospital-acquired methicillin-resistant Staphylococcus aureus [HA-MRSA; ATCC 33591] and the […], Escherichia coli [MC4100], Acinetobacter baumannii [ATCC 17498] and Pseudomonas aeruginosa [PAO1].

E. coli (MC4100) = test: MIC against E. coli; settings: Escherichia coli, 72 hours, 37 °C
Experimental: as §1, §2, §3, §4

panel of bacteria = test: MIC across the panel of bacteria (Gram-positive and Gram-negative); settings: over the bacterial panel
Experimental: as §1, §2, §3, §4

established biofilm = test: Biofilm eradication (MBEC) over the strains tested; settings: pegged-lid microtiter plate assay
Experimental: A regrowth assay was used to establish the MBEC of a compound to evaluate the antibiofilm activity.
Biofilm eradication experiments were performed using a pegged-lid microtiter plate assay to determine the MBEC values for compounds of interest, as previously described. […] Sci. Rep. 2017, 7, 2003; and Raval, Y. S., Flurin, L., Mohamed, A., Greenwood-Quaintance, K. E., Beyenal, H., & Patel, R. In Vitro Activity of Hydrogen Peroxide and Hypochlorous Acid Generated by Electrochemical Scaffolds Against Planktonic and Biofilm Bacteria. Antimicrob Agents Chemother. 2021, 65, e01966-20. Briefly, […] of mid-log phase culture diluted to ca. 10^6 CFU/mL in tryptic soy broth (TSB) was added to wells of plat-bottom 96-well plates (Thermo Scientific, 266120) and covered with 96-pegged lid (Thermo Scientific, 445497). […] MBEC values were determined as the lowest test concentration that resulted eradicated biofilm (i.e., wells displaying no turbidity in the final plate).
Pleased by the activity of the phosphonium compounds, the inventors sought to further investigate the antibacterial properties while comparing the effects of the heteroatom on activity. To do so, the inventors determined the minimum biofilm eradication concentration (MBEC) of bisQPC ^MeP2P-12,12 and analogous bisQAC 12(2)12 using a pegged-lid microtiter plate assay.

A. baumannii = test: MIC against A. baumannii; settings: Acinetobacter baumannii, 72 h
Experimental: as §1, §2, §3, §4

## CCCCCCCCCCCC[N+](C)(C)CC[N+](C)(C)CCCCCCCCCCCC [12(2)12, reference compound]
CA-MRSA (USA300-0114)
  MIC: 2 µM
E. coli (MC4100)
  MIC: 2 µM
Panel of bacteria
  antimicrobial activity / bioactivity (in words): almost identical bioactivity across the bacterial panel
Established biofilm
  ability to eradicate established biofilm (in words): ability to eradicate established biofilm against three of the strains tested
A. baumannii
  MIC: 2 µM

## CCCCCCCCCCCC[P+](C)(C)CC[P+](C)(C)CCCCCCCCCCC [^MeP2P-12,12]
CA-MRSA (USA300-0114)
  MIC: 2 µM
E. coli (MC4100)
  MIC: 4 µM
Panel of bacteria
  antimicrobial activity / bioactivity (in words): single-digit micromolar activity; also recorded: almost identical bioactivity across the bacterial panel
Established biofilm
  ability to eradicate established biofilm (in words): ability to eradicate established biofilm against three of the strains tested
A. baumannii
  MIC: 8 µM
